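Step 1: Grow cells in 96-well plates. Step 2: Expose to compound for 48 hours at 5 concentrations. Step 3: Interpolate endpoints linearly; if unreached, use highest concentration. At the GI50, growth is halved.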 Calls of active or inactive are those of the source. Cut-off read from the data, not from the text of the source: active = GI50 up to about 1.1 µM and inactive = higher.
Key:
Assay in all cases: NCI-60 cell line screen, 48 h
OVCAR-8 = test system: OVCAR-8
SNB-75 = test system: SNB-75
A549 = test system: A549
U-251 = test system: U-251
PC-3 = test system: PC-3
UACC-62 = test system: UACC-62
M14 = test system: M14
786-0 = test system: 786-0
KM12 = test system: KM12
K562 = test system: K562
TK-10 = test system: TK-10
COLO 205 = test system: COLO 205
SK-MEL-5 = test system: SK-MEL-5
SF-268 = test system: SF-268
LOX IMVI = test system: LOX IMVI
CAKI-1 = test system: CAKI-1
SF-295 = test system: SF-295
SNB-19 = test system: SNB-19
HL-60 = test system: HL-60
A498 = test system: A498

Row | SMILES | GI50 (OVCAR-8) | GI50 (SNB-75) | GI50 (A549) | GI50 (U-251) | GI50 (PC-3) | GI50 (UACC-62) | GI50 (M14) | GI50 (786-0) | GI50 (KM12) | GI50 (K562) | GI50 (TK-10) | GI50 (COLO 205) | GI50 (SK-MEL-5) | GI50 (SF-268) | GI50 (LOX IMVI) | GI50 (CAKI-1) | GI50 (SF-295) | GI50 (SNB-19) | GI50 (HL-60) | GI50 (A498)
1 | CCOC(=O)COc1cc(-c2ccccc2F)nc2cc3c(cc12)OCO3 | > 100 µM (inactive) | 59.4 µM (inactive) | > 100 µM (inactive) | 93.5 µM (inactive) | > 100 µM (inactive) | > 100 µM (inactive) | > 100 µM (inactive) | > 100 µM (inactive) | > 100 µM (inactive) | 38.1 µM (inactive) | > 100 µM (inactive) | > 100 µM (inactive) | 71.9 µM (inactive) | > 100 µM (inactive) | 53.7 µM (inactive) | > 100 µM (inactive) | > 100 µM (inactive) |  |  | 
2 | COc1ccc(OC)c2c(C(C)=O)cccc12 | > 100 µM (inactive) |  | > 100 µM (inactive) | > 100 µM (inactive) | > 100 µM (inactive) | > 100 µM (inactive) |  | > 100 µM (inactive) | > 100 µM (inactive) | > 100 µM (inactive) | > 100 µM (inactive) | > 100 µM (inactive) | > 100 µM (inactive) | > 100 µM (inactive) |  |  | > 100 µM (inactive) | > 100 µM (inactive) | 85.1 µM (inactive) | > 100 µM (inactive)
3 | COc1ccc2c(c1)c1c(n2CCN2CCOCC2)-c2ccccc2CC1 | 34.2 µM (inactive) | 39.7 µM (inactive) | 30.8 µM (inactive) | 29.9 µM (inactive) | 26.1 µM (inactive) | > 100 µM (inactive) | 41.4 µM (inactive) | 37.4 µM (inactive) | 32.8 µM (inactive) | 15.3 µM (inactive) | 48.1 µM (inactive) | 17.1 µM (inactive) | 20.7 µM (inactive) | 42.3 µM (inactive) |  | > 100 µM (inactive) | 27.9 µM (inactive) |  |  | 32.9 µM (inactive)
4 | CCN(CC)CCCNc1n[n+]([O-])c2ccccc2[n+]1[O-] | 8.51 µM (inactive) | 23.1 µM (inactive) | 12.6 µM (inactive) | 18.5 µM (inactive) | 9.73 µM (inactive) | 8.43 µM (inactive) | 22.4 µM (inactive) | 8.69 µM (inactive) | 15 µM (inactive) | 6.93 µM (inactive) | 4.07 µM (inactive) | 11.2 µM (inactive) | 1.52 µM (inactive) | 26.4 µM (inactive) |  | 31.8 µM (inactive) | 15 µM (inactive) | 25.9 µM (inactive) | 3.57 µM (inactive) | 3.62 µM (inactive)
5 | Cc1cc(S(=O)(=O)Nc2nc3ccccc3nc2-c2cccc([N+](=O)[O-])c2)c(S)cc1Cl | 34.5 µM (inactive) |  | 16.1 µM (inactive) | 16.9 µM (inactive) | 19.7 µM (inactive) | 12.3 µM (inactive) | 17.2 µM (inactive) | 23.8 µM (inactive) | 15.6 µM (inactive) | 26 µM (inactive) | 35.2 µM (inactive) | 16.3 µM (inactive) | 15 µM (inactive) | 25.9 µM (inactive) |  | 18.3 µM (inactive) | 25.1 µM (inactive) | 16.5 µM (inactive) | 20.4 µM (inactive) | 14.4 µM (inactive)
6 | O=C(CNc1cccc(Cl)c1)Nn1c(-c2ccccc2)nc2ccccc2c1=O | 4.34 µM (inactive) | 3.61 µM (inactive) | 19.7 µM (inactive) | 1.74 µM (inactive) | 10.2 µM (inactive) | 1.69 µM (inactive) | 2.09 µM (inactive) | 2.77 µM (inactive) | 10.9 µM (inactive) | 2.66 µM (inactive) | > 10 µM (inactive) | 3.83 µM (inactive) | 1.53 µM (inactive) | 4.71 µM (inactive) | 1.21 µM (inactive) |  | 14.1 µM (inactive) | 15.7 µM (inactive) | 2.95 µM (inactive) | 19.5 µM (inactive)
7 | CC(=O)Nc1ccccc1S(=O)(=O)c1c(-c2c(C)c(Cl)c(C)c(Cl)c2C)noc1C | 37 µM (inactive) | 12.4 µM (inactive) | 60.1 µM (inactive) | 31.6 µM (inactive) | 35.1 µM (inactive) | 28.9 µM (inactive) | 74.3 µM (inactive) | 18.4 µM (inactive) | > 100 µM (inactive) | 33.3 µM (inactive) | 23.3 µM (inactive) | > 100 µM (inactive) | > 100 µM (inactive) | 75.2 µM (inactive) |  | 28.9 µM (inactive) | 32.8 µM (inactive) | 26 µM (inactive) |  | 57 µM (inactive)
8 | C=CCOC(=O)C1=C(CCC[C@@H](C)O[Si](C)(C)C(C)(C)C)N=C(N)N2[C@H](CCO)CC[C@@H]12 |  | 16.4 µM (inactive) | 10.3 µM (inactive) | 12.3 µM (inactive) | 8.45 µM (inactive) | 15.8 µM (inactive) | 13.9 µM (inactive) | 17.9 µM (inactive) | 11.3 µM (inactive) | 6.34 µM (inactive) | 16.9 µM (inactive) | 10.9 µM (inactive) | 12.4 µM (inactive) | 17.3 µM (inactive) |  | 13.4 µM (inactive) | 12.6 µM (inactive) | 15.5 µM (inactive) |  | 18 µM (inactive)
9 | CC1SC(=O)SC1C (stereo not drawn) | > 100 µM (inactive) | > 100 µM (inactive) | > 100 µM (inactive) | > 100 µM (inactive) | > 100 µM (inactive) |  | > 100 µM (inactive) | > 100 µM (inactive) | > 100 µM (inactive) | > 100 µM (inactive) | > 100 µM (inactive) | > 100 µM (inactive) | > 100 µM (inactive) | > 100 µM (inactive) |  |  | > 100 µM (inactive) | > 100 µM (inactive) | > 100 µM (inactive) | 
10 | O=C1NC2(CCNCC2)Oc2ccccc21 | > 100 µM (inactive) | > 100 µM (inactive) | > 100 µM (inactive) | > 100 µM (inactive) | > 100 µM (inactive) | > 100 µM (inactive) | > 100 µM (inactive) | > 100 µM (inactive) | > 100 µM (inactive) | > 100 µM (inactive) | > 100 µM (inactive) | > 100 µM (inactive) | > 100 µM (inactive) | > 100 µM (inactive) | > 100 µM (inactive) | > 100 µM (inactive) | > 100 µM (inactive) | > 100 µM (inactive) | > 100 µM (inactive) | 
11 | CC(C)C(O)(C(=O)OCN1C(=O)C2C3C=CC(C2C1=O)C1C2C(=O)N(COC(=O)C(O)(C(C)C)C(C)O)C(=O)C2C31)C(C)O (stereo not drawn) | > 100 µM (inactive) | 0.0275 µM (active) | > 100 µM (inactive) | > 100 µM (inactive) | > 100 µM (inactive) | > 100 µM (inactive) | > 100 µM (inactive) | > 100 µM (inactive) | > 100 µM (inactive) | > 100 µM (inactive) | > 100 µM (inactive) | > 100 µM (inactive) | > 100 µM (inactive) | > 100 µM (inactive) |  | > 100 µM (inactive) | > 100 µM (inactive) | > 100 µM (inactive) | > 100 µM (inactive) | 39.7 µM (inactive)
12 | Cc1cc(C)n(CCNCCn2nc(C)cc2C)n1 | > 100 µM (inactive) | > 100 µM (inactive) | > 100 µM (inactive) | > 100 µM (inactive) |  | > 100 µM (inactive) | > 100 µM (inactive) | > 100 µM (inactive) | > 100 µM (inactive) | > 100 µM (inactive) | > 100 µM (inactive) | > 100 µM (inactive) | > 100 µM (inactive) | > 100 µM (inactive) | > 100 µM (inactive) | > 100 µM (inactive) | > 100 µM (inactive) | > 100 µM (inactive) | > 100 µM (inactive) | > 100 µM (inactive)
13 | COC(=O)Cn1c(=O)oc2nc(-c3ccccc3)cc(C(F)(F)F)c21 | 18.3 µM (inactive) | > 100 µM (inactive) | 82 µM (inactive) | 61.2 µM (inactive) | > 100 µM (inactive) | > 100 µM (inactive) | > 100 µM (inactive) | > 100 µM (inactive) | 69.8 µM (inactive) |  | > 100 µM (inactive) | > 100 µM (inactive) | 26.7 µM (inactive) | > 100 µM (inactive) |  | > 100 µM (inactive) | 45.3 µM (inactive) | > 100 µM (inactive) |  | > 100 µM (inactive)
14 | O=C1CSC(Cc2nc3ccccc3[nH]2)=N1 | 23.5 µM (inactive) | 17.1 µM (inactive) | 21.6 µM (inactive) | 17.3 µM (inactive) |  | 15.1 µM (inactive) | 15.4 µM (inactive) | 17.1 µM (inactive) | 17.6 µM (inactive) | 15 µM (inactive) | 28.2 µM (inactive) | 23.5 µM (inactive) | 7.45 µM (inactive) | 16.7 µM (inactive) | 13.9 µM (inactive) | 15.8 µM (inactive) | 24.7 µM (inactive) | 21.1 µM (inactive) | 28.6 µM (inactive) | 5.98 µM (inactive)
15 | O=c1oc2ccc(Cl)cc2cc1-c1cn2cc(Cl)ccc2n1 | > 57 µM (inactive) | > 100 µM (inactive) | 14.1 µM (inactive) | > 49.3 µM (inactive) | > 100 µM (inactive) | 0.574 µM (active) | 4.46 µM (inactive) | > 42.4 µM (inactive) | 2.54 µM (inactive) | 5.05 µM (inactive) | > 100 µM (inactive) | > 100 µM (inactive) | > 100 µM (inactive) | > 80.9 µM (inactive) | > 28.2 µM (inactive) | > 22.4 µM (inactive) | 10.1 µM (inactive) |  | 3.4 µM (inactive) | 

— ChEMBL document CHEMBL1201862, “PubChem BioAssay data set” (2004)
